The record followed here is ChEMBL document CHEMBL1201862, “PubChem BioAssay data set” (2004).

The source made the active and inactive calls.

One experiment concerns the target T1, Interleukin-8 (Homo sapiens, UniProt P10145).
T1 sequence (P10145 whole entry): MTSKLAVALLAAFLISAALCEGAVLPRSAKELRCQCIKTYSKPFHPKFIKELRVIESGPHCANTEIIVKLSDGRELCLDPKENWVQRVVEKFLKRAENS
In words: Dose Response confirmation of uHTS small molecule hits for cystic fibrosis induced NFkb Inhibitors in a PAF-induced IL8 counterscreen. The settings on record: read-out: IC50_Mean. The class given is functional. A general note: The purpose of a counterscreen is to sort out artefacts and off-target activity.

In experiment [1] the target is Mitogen-activated protein kinase 10 (Homo sapiens, UniProt P53779). In words: Dose response biochemical screening assay for inhibitors of c-Jun N-Terminal Kinase 3 (JNK3). [Related pubchem assays: 746 ].
Experiment [2] deals with T2, Aryl hydrocarbon receptor (Homo sapiens, UniProt P35869).
T2 sequence (P35869 whole entry): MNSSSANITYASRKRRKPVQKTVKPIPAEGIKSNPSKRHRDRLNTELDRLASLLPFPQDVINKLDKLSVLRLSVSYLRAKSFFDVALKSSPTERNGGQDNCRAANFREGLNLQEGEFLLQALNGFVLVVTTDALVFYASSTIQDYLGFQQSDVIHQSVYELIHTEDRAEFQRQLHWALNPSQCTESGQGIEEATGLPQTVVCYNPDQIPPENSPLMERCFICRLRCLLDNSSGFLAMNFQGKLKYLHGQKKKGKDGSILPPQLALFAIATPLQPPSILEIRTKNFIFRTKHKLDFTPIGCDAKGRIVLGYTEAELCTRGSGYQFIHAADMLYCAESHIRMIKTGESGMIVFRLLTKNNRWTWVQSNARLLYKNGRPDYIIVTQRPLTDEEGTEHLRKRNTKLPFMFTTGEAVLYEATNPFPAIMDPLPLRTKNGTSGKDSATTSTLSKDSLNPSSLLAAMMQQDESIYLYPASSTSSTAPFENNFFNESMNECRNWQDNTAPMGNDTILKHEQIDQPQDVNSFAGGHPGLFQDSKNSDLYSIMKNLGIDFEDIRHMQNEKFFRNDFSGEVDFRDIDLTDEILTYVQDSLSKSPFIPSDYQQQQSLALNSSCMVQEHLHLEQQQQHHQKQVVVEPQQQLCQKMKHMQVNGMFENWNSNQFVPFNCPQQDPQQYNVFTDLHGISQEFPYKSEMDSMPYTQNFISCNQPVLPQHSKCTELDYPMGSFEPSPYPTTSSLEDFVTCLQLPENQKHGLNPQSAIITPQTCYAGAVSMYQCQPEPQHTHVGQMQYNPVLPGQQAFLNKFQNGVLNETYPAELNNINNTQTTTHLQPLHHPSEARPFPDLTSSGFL
As to conditions: Potency.

A short description of experiment [3]: Shn3 3'UTR reporter inhibitors, dose response, cell-based, Clone20 osteoblasts, firefly luciferase, cherry-picked (AID 624132).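 Further: firefly luciferase luminescence from reporter carrying the Shn3 3'UTR in osteoblasts.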 The class given is functional.
Experiment [4] in a line: inhibitors of clade B AD8 Env fusion, dose response, cell-based, cherry-pick (AID 652062).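 Further: luciferase signal from cell-cell fusion driven by HIV-1 clade B AD8 Env; potency is for inhibitors of fusion seen as a drop in luminescence.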 The class given is functional.
Experiment [5] in a line: inhibitors of HIV Env-driven cell fusion, dose response, cherry-pick (AID 652057). It is filed as functional, cell-based.
The target in the next experiment is Protein Wnt-3a (Mus musculus, UniProt P27467). In words: Wnt3a-driven reporter signaling inhibition, dose response, selectivity assay for Gli-SUFU antagonist project, Wnt-LIGHT cells, luminescence (AID 651570).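 Further: Wnt-LIGHT reporter cells stimulated with conditioned medium from Wnt3a-producing cells.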 The class given is functional. As to conditions: read-out: IC50_Mean.
A short description of experiment [6]: control 3'UTR Renilla luciferase suppression, dose response, counter-screen for Shn3 inhibitor project, cell-based, Clone20-Shn3RL, cherry-picked (AID 624133). The class given is functional.
The nature of experiment [7]: HepG2 cell cytotoxicity, dose response, cytotoxicity control for Shn3 inhibitor project, CellTiter-Glo, cherry-picked (AID 624134). The class given is functional, cell-based. A general note: Cellular ATP, detected with luciferase, serves as a proxy for viable cell number.
Experiment [8] in a line: off-target signal loss in HeLa-CEM21 co-culture – HeLa F-luc CTL cells, cherry-picked, counter-screen for HIV-1 Env fusion inhibitor project, dose response (AID 652040).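 Further: potency for signal decrease marking cytotoxic or nonspecific inhibition.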 It is filed as functional, cell-based.
Experiment [9] deals with T3, Methionyl-tRNA synthetase, putative (Trypanosoma brucei brucei, UniProt Q38C91).
T3 sequence (Q38C91 whole entry): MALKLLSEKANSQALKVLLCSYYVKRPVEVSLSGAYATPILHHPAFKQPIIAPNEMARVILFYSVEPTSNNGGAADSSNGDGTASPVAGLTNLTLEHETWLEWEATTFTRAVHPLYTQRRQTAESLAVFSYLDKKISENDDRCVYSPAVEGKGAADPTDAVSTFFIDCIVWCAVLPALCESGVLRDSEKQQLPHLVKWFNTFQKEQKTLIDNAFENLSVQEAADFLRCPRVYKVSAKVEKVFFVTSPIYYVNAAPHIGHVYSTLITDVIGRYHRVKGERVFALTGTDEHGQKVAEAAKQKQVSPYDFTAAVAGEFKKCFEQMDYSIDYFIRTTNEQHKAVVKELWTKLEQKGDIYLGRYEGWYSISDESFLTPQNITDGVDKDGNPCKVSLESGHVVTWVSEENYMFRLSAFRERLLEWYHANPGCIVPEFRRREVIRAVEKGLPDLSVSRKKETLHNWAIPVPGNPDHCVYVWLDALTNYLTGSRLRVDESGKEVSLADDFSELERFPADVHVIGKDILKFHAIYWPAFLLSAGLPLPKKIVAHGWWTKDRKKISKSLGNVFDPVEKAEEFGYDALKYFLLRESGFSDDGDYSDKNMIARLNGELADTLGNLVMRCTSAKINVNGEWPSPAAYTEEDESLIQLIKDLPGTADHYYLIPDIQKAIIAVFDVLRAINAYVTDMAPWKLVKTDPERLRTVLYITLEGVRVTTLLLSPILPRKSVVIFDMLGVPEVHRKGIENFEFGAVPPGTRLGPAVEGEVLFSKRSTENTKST
The class given is functional, Trypanosoma brucei brucei strain 927/4 GUTat10.1.

The nature of experiment [10]: Counterscreen for inhibitors of Trypanosoma brucei methionyl tRNA synthetase (MetRS): Luminescence-based cell-based high throughput dose response assay to identify compounds that are cytotoxic to Jurkat human T lymphocyte cells. The class given is functional.
Experiment [11] has as its target T3, Methionyl-tRNA synthetase, putative. It is filed as functional, Trypanosoma brucei brucei strain 927/4 GUTat10.1. This is another data set of the same source.
The target of experiment [12] is Potassium voltage-gated channel subfamily KQT member 2 (Rattus norvegicus, UniProt O88943). Nature of the experiment: KCNQ2 potassium channel inhibitors, dose response, cell-based, automated electrophysiology, set II, rat KCNQ2 (AID 588637). The class given is functional.
Experiment [13] addresses T4, Orexin/Hypocretin receptor type 1 (Homo sapiens, UniProt O43613).
T4 sequence (O43613 whole entry): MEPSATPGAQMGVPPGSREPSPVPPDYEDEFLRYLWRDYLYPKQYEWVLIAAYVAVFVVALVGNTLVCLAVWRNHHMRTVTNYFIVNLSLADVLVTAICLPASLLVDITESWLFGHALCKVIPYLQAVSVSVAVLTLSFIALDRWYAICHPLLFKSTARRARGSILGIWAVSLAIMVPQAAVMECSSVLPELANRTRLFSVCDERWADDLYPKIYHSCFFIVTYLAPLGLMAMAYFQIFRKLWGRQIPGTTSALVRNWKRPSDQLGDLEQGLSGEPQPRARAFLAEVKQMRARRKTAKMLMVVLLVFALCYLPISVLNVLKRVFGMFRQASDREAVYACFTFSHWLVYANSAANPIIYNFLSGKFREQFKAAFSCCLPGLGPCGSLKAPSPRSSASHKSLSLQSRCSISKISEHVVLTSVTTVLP
In words: Homogeneous Time Resolved Fluorescence (HTRF)-based cell-based high throughput dose response assay for antagonists of the orexin 1 receptor (OX1R; HCRTR1). [Related pubchem assays (depositor defined):AID434989, AID435008, AID463079, AID485270, AID492963, AID492964, AID492965, AID493232, AID504717, AID504718]. The class given is functional. In general terms: In TR-FRET formats the signal depends on donor and acceptor labels being close together.

Experiment [14] has as its target T5, Orexin receptor type 2 (Homo sapiens, UniProt O43614).
T5 sequence (O43614 whole entry): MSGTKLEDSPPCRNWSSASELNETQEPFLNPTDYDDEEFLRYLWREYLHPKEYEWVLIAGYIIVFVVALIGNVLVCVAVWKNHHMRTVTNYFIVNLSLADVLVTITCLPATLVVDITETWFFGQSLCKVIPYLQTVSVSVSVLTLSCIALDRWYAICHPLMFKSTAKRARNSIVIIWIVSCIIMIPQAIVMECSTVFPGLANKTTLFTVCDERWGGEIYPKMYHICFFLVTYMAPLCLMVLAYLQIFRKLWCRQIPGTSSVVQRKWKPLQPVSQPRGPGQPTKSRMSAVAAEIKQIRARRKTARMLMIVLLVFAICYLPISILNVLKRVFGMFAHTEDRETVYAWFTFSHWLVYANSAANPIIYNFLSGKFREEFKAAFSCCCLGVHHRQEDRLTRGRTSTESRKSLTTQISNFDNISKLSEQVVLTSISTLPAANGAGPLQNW
Nature of the experiment: Counterscreen assay for antagonists of the orexin 1 receptor (OX1R; HCRTR1): Homogeneous Time Resolved Fluorescence (HTRF)-based cell-based dose response assay for antagonists of the orexin 2 receptor (OX2R; HCRTR2), run by assay provider. It is filed as functional.

For experiment [15], the target named is T4, Orexin/Hypocretin receptor type 1. Nature of the experiment: Fluorescence-based cell-based high throughput dose response assay for antagonists of the orexin 1 receptor (OX1R; HCRTR1). [Related pubchem assays (depositor defined):AID434989, AID435008, AID463079, AID485270, AID492963, AID492964, AID492965, AID493232, AID504717, AID504718]. It is filed as functional.

Experiment [16] can be described thus: Counterscreen for antagonists of the orexin 1 receptor (OX1R; HCRTR1): Fluorescence-based cell-based high throughput dose response assay to identify antagonists of the parental CHO cell line. [Related pubchem assays (depositor defined):AID434989, AID435008, AID463079, AID485270, AID492963, AID492964, AID492965, AID493232, AID504699, AID504701]. It is filed as functional.

The subject of another experiment is CHO-K1. Nature of the experiment: Counterscreen for antagonists of the orexin 1 receptor (OX1R; HCRTR1): Homogeneous time resolved fluorescence (HTRF)-based cell-based dose response assay to identify antagonists of the parental CHO-K1 cell line. [Related pubchem assays (depositor defined):AID434989, AID435008, AID463079, AID485270, AID492963, AID492964, AID492965, AID493232, AID504699, AID504701]. The class given is functional. The settings on record: Cricetulus griseus.

For experiment [17], the target named is T5, Orexin receptor type 2. In words: Counterscreen assay for antagonists of the orexin 1 receptor (OX1R; HCRTR1): Fluorescence-based cell-based dose response assay for antagonists of the orexin 2 receptor (OX2R; HCRTR2), run by assay provider. It is filed as functional.
The target in experiment [18] is Long-chain-fatty-acid--AMP ligase FadD28 (Mycobacterium tuberculosis, UniProt P9WQ59). In words: Fluorescence polarization aasay to screen for inhibitors that compete for the binding of FadD28 to a bisubstrate Measured in Biochemical System Using Plate Reader - 2147-01_Inhibitor_Dose_CherryPick_Activity. It is filed as functional, Mycobacterium tuberculosis H37Rv.
Chain of Long-chain-fatty-acid--AMP ligase FadD28 (P9WQ59 whole entry): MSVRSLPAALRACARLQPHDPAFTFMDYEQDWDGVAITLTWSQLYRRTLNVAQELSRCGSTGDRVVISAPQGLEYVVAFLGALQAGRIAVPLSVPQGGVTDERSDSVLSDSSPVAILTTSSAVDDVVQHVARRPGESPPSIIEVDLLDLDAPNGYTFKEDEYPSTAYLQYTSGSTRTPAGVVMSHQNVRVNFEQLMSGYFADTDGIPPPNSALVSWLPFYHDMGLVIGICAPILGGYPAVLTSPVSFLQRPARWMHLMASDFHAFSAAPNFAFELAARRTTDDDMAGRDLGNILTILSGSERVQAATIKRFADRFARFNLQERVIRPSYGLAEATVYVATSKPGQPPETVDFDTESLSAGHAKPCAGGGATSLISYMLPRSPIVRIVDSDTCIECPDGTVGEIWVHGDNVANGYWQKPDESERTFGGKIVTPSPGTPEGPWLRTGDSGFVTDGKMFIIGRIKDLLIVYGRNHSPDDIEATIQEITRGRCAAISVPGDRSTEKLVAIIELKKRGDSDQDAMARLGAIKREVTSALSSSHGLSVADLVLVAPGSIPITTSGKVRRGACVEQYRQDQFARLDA

Chain of Potassium voltage-gated channel subfamily KQT member 2 (O88943 whole entry): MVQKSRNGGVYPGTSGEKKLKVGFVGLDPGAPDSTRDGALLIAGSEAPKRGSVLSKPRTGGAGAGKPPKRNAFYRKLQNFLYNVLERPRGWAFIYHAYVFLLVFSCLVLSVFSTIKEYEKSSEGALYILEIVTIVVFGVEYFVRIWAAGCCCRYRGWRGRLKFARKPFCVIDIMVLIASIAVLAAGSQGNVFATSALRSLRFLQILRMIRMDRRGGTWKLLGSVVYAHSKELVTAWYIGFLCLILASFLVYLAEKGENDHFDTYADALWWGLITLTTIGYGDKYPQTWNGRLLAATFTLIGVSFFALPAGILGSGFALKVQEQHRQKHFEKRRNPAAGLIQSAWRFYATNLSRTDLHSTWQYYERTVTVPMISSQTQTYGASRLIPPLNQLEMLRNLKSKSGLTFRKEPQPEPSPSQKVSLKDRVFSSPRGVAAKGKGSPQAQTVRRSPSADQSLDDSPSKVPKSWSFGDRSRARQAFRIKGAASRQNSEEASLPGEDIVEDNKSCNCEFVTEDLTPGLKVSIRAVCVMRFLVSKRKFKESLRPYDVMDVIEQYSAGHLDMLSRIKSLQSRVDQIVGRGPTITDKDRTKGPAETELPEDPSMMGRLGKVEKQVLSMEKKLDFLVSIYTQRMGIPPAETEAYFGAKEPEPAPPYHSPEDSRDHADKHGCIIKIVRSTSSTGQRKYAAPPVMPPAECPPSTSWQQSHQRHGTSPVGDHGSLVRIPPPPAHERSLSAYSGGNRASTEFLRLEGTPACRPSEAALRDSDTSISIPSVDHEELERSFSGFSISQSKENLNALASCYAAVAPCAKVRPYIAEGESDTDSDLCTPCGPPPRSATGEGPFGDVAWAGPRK
Chain of Protein Wnt-3a (P27467 whole entry): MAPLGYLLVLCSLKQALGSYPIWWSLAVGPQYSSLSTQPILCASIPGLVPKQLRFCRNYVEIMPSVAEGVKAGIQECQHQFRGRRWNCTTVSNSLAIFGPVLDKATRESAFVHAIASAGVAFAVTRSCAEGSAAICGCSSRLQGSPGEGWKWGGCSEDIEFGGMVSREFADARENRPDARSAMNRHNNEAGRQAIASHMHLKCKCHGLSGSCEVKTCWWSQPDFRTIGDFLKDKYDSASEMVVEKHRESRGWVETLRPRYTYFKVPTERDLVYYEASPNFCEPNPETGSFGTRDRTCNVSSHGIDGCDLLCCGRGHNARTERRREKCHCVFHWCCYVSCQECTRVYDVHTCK
Chain of Mitogen-activated protein kinase 10 (P53779 whole entry): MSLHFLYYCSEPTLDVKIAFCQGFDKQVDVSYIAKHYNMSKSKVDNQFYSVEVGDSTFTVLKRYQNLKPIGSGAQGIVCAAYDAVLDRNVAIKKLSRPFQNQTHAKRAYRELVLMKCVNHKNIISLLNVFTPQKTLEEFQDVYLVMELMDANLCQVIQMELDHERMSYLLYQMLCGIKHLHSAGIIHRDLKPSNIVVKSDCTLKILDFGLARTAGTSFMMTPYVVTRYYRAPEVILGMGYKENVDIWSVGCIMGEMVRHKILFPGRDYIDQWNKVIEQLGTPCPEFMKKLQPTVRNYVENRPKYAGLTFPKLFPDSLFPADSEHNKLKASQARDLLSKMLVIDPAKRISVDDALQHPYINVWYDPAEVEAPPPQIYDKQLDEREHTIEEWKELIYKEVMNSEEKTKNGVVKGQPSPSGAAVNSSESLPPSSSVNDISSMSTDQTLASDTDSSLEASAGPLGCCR

As to `COc1ccc(-c2cnc(N)nc2-c2ccc(OC)cc2O)cc1`, the IC50 was 14.6 µM (inactive) on Interleukin-8 and 19.9 µM (not active) in experiment [1].
Usually AC50 stands for the midpoint of the concentration-response curve, whichever way the signal moves. As for `Cc1ccc2c(c1[N+](=O)[O-])C(=O)c1ccccc1C2=O`, in experiment [2], the AC50 was 17.8 µM (inconclusive).
For the compound `CCC(C)NS(=O)(=O)c1ccc(S(=O)(=O)N2CCCC3(CCCCC3)C2)cc1` (stereo not drawn), the AC50 in experiment [3] was 3.44 µM (active); in [4], 11.7 µM (active); in experiment [5] it was 21.4 µM (active); in experiment [6], 5.9 µM (active); in experiment [7] it was 6.54 µM (active); in experiment [8], 58.9 µM (active). Moreover, the IC50 at Protein Wnt-3a is 5.16 µM (active).
Turning to `COc1cccc(C2c3[nH]c4ccccc4c3C[C@H]3C(=O)N(C4CC4)CC(=O)N23)c1` (stereo partly drawn), the IC50 in experiment [9] is 118 µM (inactive); in experiment [10], 83.2 µM (inactive); in [11], 36.8 µM (inactive).
Turning to `CCc1sc(C(=O)Nc2ccccc2N2CCOCC2)cc1C`, the IC50 in experiment [12] was 5.75 µM (active).
On the same count and under the same terms, next, `CCC(C(=O)Nc1ccccc1N1CCCC1)c1ccccc1` (stereo not drawn): 0.161 µM (active).
As to `COC(=O)[C@H](Cc1c[nH]c2ccccc12)NC(=O)CCCc1c[nH]c2ccccc12`, the IC50 in [13] is 15.3 µM (inactive); at Orexin receptor type 2 [14] it was 6.41 µM (active); in experiment [15] it was 9.04 µM (active); in experiment [16], 17.4 µM (inactive); in the experiment on CHO-K1, > 66.2 µM (inactive); on Orexin receptor type 2 [17], 17.2 µM (inactive).
`O=C(Cc1ccc(Nc2nc3cc(Br)ccc3[nH]2)cc1)NCCc1cccs1`: the IC50 in experiment [9] is 0.163 µM (active); in experiment [10] it was 27.8 µM (inactive); in [11], 0.286 µM (active).
`NC(=O)c1ccccc1OCC(=O)N1CCC(Cc2ccccc2)CC1`: the IC50 at Protein Wnt-3a is 3.28 µM (active).
Consider `Cc1ccc2nc(Nc3ccccc3)c(/C=N/O)c(=O)n2c1`, for which the IC50 in experiment [13] was 5.11 µM (active); at Orexin receptor type 2 [14], > 50 µM (inactive); in experiment [15] it was 9.96 µM (active); in experiment [16] it was > 49.8 µM (inactive); in the experiment on CHO-K1, > 66.3 µM (inactive); at Orexin receptor type 2 [17] it was 32.5 µM (inactive).
Turning to `COc1ccc(CN2CCC(C(=O)Nc3ccc(Oc4cccnc4)cc3)CC2)cc1`, the AC50 in experiment [18] is > 100 µM (inactive).
As to `CC1=C(C(=O)Nc2ccccc2)SCCO1` [CARBOXIN], the AC50 in [2] is 50.1 µM (inconclusive).
